In US9415070B2, “Methods and compositions for localized delivery of agents to virally infected cells and tissues” (Massachusetts Institute of Technology, priority 2012, dated 2016):

B1: perforin: pore-forming protein, 67-kilodalton multidomain protein (protein, UniProt P14222 22-555, looked up)
Perforin-1: PCHTAARSECKRSHKFVPGAWLAGEGVDVTSLRRSGSFPVDTQRFLRPDGTCTLCENALQEGTLQRLPLALTNWRAQGSGCQRHVTRAKVSSTEAVARDAARSIRNDWKVGLDVTPKPTSNVHVSVAGSHSQAANFAAQKTHQDQYSFSTDTVECRFYSFHVVHTPPLHPDFKRALGDLPHHFNASTQPAYLRLISNYGTHFIRAVELGGRISALTALRTCELALEGLTDNEVEDCLTVEAQVNIGIHGSISAEAKACEEKKKKHKMTASFHQTYRERHSEVVGGHHTSINDLLFGIQAGPEQYSAWVNSLPGSPGLVDYTLEPLHVLLDSQDPRREALRRALSQYLTDRARWRDCSRPCPPGRQKSPRDPCQCVCHGSAVTTQDCCPRQRGLAQLEVTFIQAWGLWGDWFTATDAYVKLFFGGQELRTSTVWDNNNPIWSVRLDFGDVLLATGGPLRLQVWDQDSGRDDDLLGTCDQAPKSGSHEVRCNLNHGHLKFRYHARCLPHLGGGTCLDYVPQMLLGEPPGNRSGAVW

How the values were obtained:
infected target cells = assay: in vitro eradication assay, HIV-specific T cells co-cultured with infected target cells; format: cell-based; conditions: in the presence of the latency reversing drug; FIG. 4
Excerpt: The in vitro cell eradication assay presented in this Example was directed to determining if T pharmacytes can induce expression of HIV expression in latently infected cells and kill those cells. HIV-specific T cells and Cytomegalovirus (CMV)-specific T cells were co-cultured with infected target cells (and mock-infected target cells) without the addition of any exogenous cytokines.

[1] = tested on: B lymphoblastoid cell line (BLCL); assay: lysis of BLCL by recombinant perforin (FSC/SSC flow cytometry); format: cell-based; conditions: FIG. 12A
Experimental: The next series of experiments were designed to test the effects of different concentrations of recombinant perforin on lysis of a B lymphoblastoid cell line (BLCL). […] The cell populations with FSC/SSC characteristics of viable BLCL have been gated. 1 nM perforin appeared to be sufficient for clear cell lysis. To investigate whether perforin release from T cells is sufficient to trigger release of payload from nanoparticles conjugated to T cells, ICMV nanoparticles encapsulating Alexa-647-labeled OVA were treated with 1 nM perforin for 16 hours, or maintained as a no-treatment control. As a positive control for complete lysis, NPs were treated with 2% Triton X-100. Fluorescence was quantified at 647 nm absorbance and 695 nm emission.

Row | Molecule | response of HIV-specific T cells to infected target cells (infected target cells) | perforin concentration sufficient for clear cell lysis [1]
1 | IL-15: cytokine used as latency reversing drug | specifically respond to these infected target cells only in the presence of latency reversing drugs | –
2 | B1 | – | 1 nM
